How the values were obtained:
[1] = tested on: mice having kidney damage induced by Polymyxin E; test: Mouse model of nephrotoxicity by Polymyxin E: kidney histopathology and semiquantitative scoring (SQS); format: in vivo, C57BL/6 mice; details: for pathological damage score: 10 days, P<0.001
Description: (§1) C57BL/6 mice, male, 8-week-old, weighing 20-22 g, purchased from Vital River Laboratory Animal Technology Co., Ltd.
(§2) The mice were housed in the National Center for Veterinary Drug Safety Evaluation of China Agricultural University, fed with routine pelleted feed and free access to water, at a controlled temperature of (22±2)° C., and a humidity of (50±10) %. Adaptive housing was performed for 1 week before experiments.
(§3) […] were randomly divided into 6 groups (n=8 in each group), as follows:
(§4) Control group: the mice were intraperitoneally injected with an equivalent amount of normal saline.
(§5) Polymyxin E model group: the mice were intraperitoneally injected with Polymyxin E
(§6) at a single dose of 10 mg/kg body weight, twice a day, with an interval of 8 hours between doses; i.e., the mice were administered with Polymyxin E in 20 mg/kg body weight per day.
(§7) SU3327 control group: the mice were intraperitoneally injected with dissolved SU3327 at a single dose of 10 mg/kg body weight, once a day for 10 straight days; i.e., the mice were administered with SU3327 in 10 mg/kg body weight per day.
(§8) SU3327 high-dose protection group: the mice were intraperitoneally injected with SU3327 at a single dose of 10 mg/kg body weight, concurrently with Polymyxin E in 10 mg/kg, twice, with an interval of 8 hours between doses; i.e., the mice were administered with SU3327 in 10 mg/kg body weight per day, concurrently with Polymyxin E in 20 mg/kg body weight per day.
as §8, with “medium-dose” for “high-dose”, “[…]” for “10”
as §8, with “SU3327 low-dose protection group:” for “SU3327 high-dose protection group:”, “dose of 2.5 mg/kg body” for “dose of 10 mg/kg body”, “SU3327 in 2.5 mg/kg body” for “SU3327 in 10 mg/kg body”
In the experiments above, reference was made to the previously published literature by the inventors for the method of establishing the mouse model of nephrotoxicity by Polymyxin E (Dai C, Tang S, Wang Y, Velkov T, Xiao X. Baicalein acts as a nephroprotectant that ameliorates colistin-induced nephrotoxicity by activating the antioxidant defence mechanism of the kidneys and down-regulating the inflammatory response. J Antimicrob Chemother. 2017 Sep. 1; 72(9):2562-2569).
Following dosing by injection for 10 straight days, the mice were euthanized by intraperitoneal injection with an overdose of sodium pentobarbital (80 mg/kg) 24 hours post the last dosing, and blood and kidney tissues were collected quickly, the serum and tissues were processed as follows.
The isolated, fresh kidney tissues were washed with normal saline, sampled and fixed in 10% neutral formalin for 48 h, after being flushed with water, and then dehydrated, cleared, immersed in paraffin, embedded, sectioned and stained in sequence. The pathological changes in kidney tissues were observed and photographed under a microscope. HE staining: the paraffin sections were taken, and placed in an oven at a constant temperature of 60° C. for 30 min; followed by paraffin removal and dehydration with ethanol, and immersing with double distilled water; hematoxylin staining for 10 min, rinsing with tap water, and differentiation with acid alcohol; flushing with running water until the sections turned blue; 95% ethanol for 30 s, alcoholic eosin staining for 30 s, 95% ethanol for 30 s, and 100% ethanol for 30 s; clearing with Xylene, and sealing with neutral gum.
Following HE staining, damages to the renal tissues were evaluated using a semiquantitative scoring (SQS). […]

[2] = tested on: HEK293 cells; test: Cell viability test by CCK-8 method; format: cell-based, Human
Description: Human Embryonic Kidney cells (HEK293), preserved by National Center for Veterinary Drug Safety Evaluation of China Agricultural University.
Cytotoxicity was determined by a CCK-8 method. After HEK293 cells (5×10^4 cells/well) were seeded onto 96-well tissue culture plates and cultured for 24 hours, the cells were treated with SU3327 or Polymyxin E alone or in combination, with SU3327 in a final concentration of 5 μM, 2.5 μM, 1.25 μM and 0.625 μM; Polymyxin E in a final concentration of 2 mM; combination groups of SU3327 and Polymyxin E: Polymyxin E (2 mM)+SU3327 (5 μM), Polymyxin E (2 mM)+SU3327 (2.5 μM), Polymyxin E (2 mM)+SU3327 (1.25 μM), Polymyxin E (2 mM)+SU3327 (0.625 μM), and control group (Control) 0.1% DMSO. Following continued culture for 24 h, a CCK-8 kit was used to detect the changes in cell viability.

[3] = in vivo; cited from earlier work
[4] = tested on: mice having kidney damage induced by Polymyxin E; test: Mouse model of nephrotoxicity by Polymyxin E: urea nitrogen and creatinine in serum; format: in vivo, C57BL/6 mice
Description: as §1, §2, §3, §4, §5, §6, §7, §8
as §8, with “medium-dose” for “high-dose”, “[…]” for “10”
SU3327 low-dose protection group: the mice were intraperitoneally injected with SU3327 at a single dose of 2.5 mg/kg body weight, concurrently with Polymyxin E in 10 mg/kg, twice, with an interval of 8 hours between doses; i.e., the mice were administered with SU3327 in 2.5 mg/kg body weight per day, concurrently with Polymyxin E in 20 mg/kg body weight per day. […]
The blood samples collected from the mice were centrifuged at 3000 rpm for 10 min, and the supernatant was aspirated. The changes of urea nitrogen in serum and creatinine in serum were detected by an automatic biochemical detector.

[5] = tested on: E. coli; details: laboratory tests, Collins group, Cell 2020; cited from earlier work
[6] = target: p38α (Homo sapiens, UniProt Q16539); details: cited from earlier work
[7] = tested on: Akt kinases; details: cited from earlier work
[8] = tested on: JNK; details: read-out: IC50 as JNK inhibitor; cited from earlier work
[9] = tested on: Mycobacterium tuberculosis; details: laboratory tests, Collins group, Cell 2020; cited from earlier work
[10] = tested on: JNK and JIP; details: read-out: IC50 for inhibition of protein interaction between JNK and JIP; cited from earlier work
[11] = tested on: Clostridium difficile; details: laboratory tests, Collins group, Cell 2020; cited from earlier work
[12] = Polymyxin E 20 mg/kg per day i.p. for 10 straight days
[13] = SU3327 at 2.5, 5 and 10 mg/kg i.p. in combination with Polymyxin E 20 mg/kg per day, 10 days

Chain of p38α (Q16539 whole entry): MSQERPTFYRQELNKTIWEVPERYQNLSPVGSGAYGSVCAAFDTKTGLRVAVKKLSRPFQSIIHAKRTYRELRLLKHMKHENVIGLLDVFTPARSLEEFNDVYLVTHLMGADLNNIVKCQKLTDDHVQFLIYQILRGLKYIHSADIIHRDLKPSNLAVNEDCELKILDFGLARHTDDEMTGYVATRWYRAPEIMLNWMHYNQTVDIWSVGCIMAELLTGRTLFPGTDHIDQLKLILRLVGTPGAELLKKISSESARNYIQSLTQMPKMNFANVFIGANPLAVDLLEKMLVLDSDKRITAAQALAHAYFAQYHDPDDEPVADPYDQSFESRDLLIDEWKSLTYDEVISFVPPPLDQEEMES

## Polymyxin E
[1]; [12]
  average of pathological semiquantitative score: 3
  kidney pathological damages (epithelial cell shedding, necrosis, tubular casts): obvious pathological damages
[2]; polymyxin alone 2 mM, 24 hours
  cell viability: 55.3%
[3]
  clinical incidence of nephrotoxicity: up to 60%
  clinical incidence of neurotoxicity: about 7%
  clinical incidence of symptoms from mild peripheral neurotoxicity: ≤ 100%
[4]; [12]
  level of BUN in the serum compared to control group: significantly up-regulated
  level of CRE in the serum compared to control group: significantly up-regulated

## Nc1nnc(Sc2ncc([N+](=O)[O-])s2)s1 [SU3327]
[1]; SU3327 2.5 mg/kg i.p. in combination with Polymyxin E 20 mg/kg per day
  pathological damage score: 1
[1]; SU3327 5 mg/kg i.p. in combination with Polymyxin E 20 mg/kg per day
  pathological damage score: 0.75
[1]; SU3327 10 mg/kg i.p. in combination with Polymyxin E 20 mg/kg per day
  pathological damage score: 0.5
[1]; SU3327 in combination with Polymyxin E
  pathological changes in renal tubules: remarkably improved
[5]
  growth of E. coli: effectively prevented the growth
[2]; SU3327 2.5 μM in combination with Polymyxin E 2 mM, 24 h
  cell viability: 68.5%
[2]; SU3327 (5-0.625 μM) in combination with Polymyxin E 2 mM, 24 h
  cell viability compared to treatment group with polymyxin alone: increased to some extent
[2]; SU3327 alone in 5 μM, 2.5 μM, 1.25 μM and 0.625 μM, 24 h
  cell viability compared with control group: significantly changed
[6]
  activity for p38α: low activity
[7]
  activity for Akt kinases: low activity
[8]
  IC50: 700 nM
[4]; [13]
  level of creatinine in the serum compared to Polymyxin E model group: significantly lowered
  level of urea nitrogen in the serum compared to Polymyxin E model group: significantly lowered
[9]
  killing of Mycobacterium tuberculosis: killed
[10]
  IC50: 239 nM
[11]
  killing of Clostridium difficile: killed
